Reference: ChEMBL document CHEMBL1201862, “PubChem BioAssay data set” (2004)
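96-well plates; 48 h exposure; 5 concentrations. Endpoints by linear interpolation between flanking doses. Not reached: highest tested concentration assigned. GI50: concentration for 50% inhibition of growth.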 Activity calls are given as the source filed them. No stated cut-off is given here; in the data, active = GI50 up to about 1.1 µM and inactive = higher.

Legend:
Assay in all cases: DTP human tumour cell line panel, 48 h
[1] = test system: 786-0
[2] = test system: A498
[3] = test system: BT-549
[4] = test system: DMS-273
[5] = test system: HCT-116
[6] = test system: HCT-15
[7] = test system: HOP-92
[8] = test system: HT-29
[9] = test system: IGROV-1
[10] = test system: MDA-N
[11] = test system: MOLT-4
[12] = test system: OVCAR-3
[13] = test system: OVCAR-5
[14] = test system: RXF 393
[15] = test system: SF-539
[16] = test system: SN12C
[17] = test system: SR
[18] = test system: TK-10
[19] = test system: U-251
[20] = test system: UO-31

## CC1(O)CC2(O)C=CC3=C(C(=O)c4cccc(O)c4C3=O)C2(O)C(=O)C1O (stereo not given)
[1]
  GI50: 1.96 µM (inactive)
[2]
  GI50: 7.26 µM (inactive)
[3]
  GI50: 1.17 µM (inactive)
[4]
  GI50: 5.08 µM (inactive)
[5]
  GI50: 0.863 µM (active)
[6]
  GI50: 1.28 µM
[7]
  GI50: 1.07 µM (active)
[8]
  GI50: 2.43 µM (inactive)
[9]
  GI50: 4.6 µM (inactive)
[10]
  GI50: 1.78 µM (inactive)
[11]
  GI50: 0.56 µM (active)
[12]
  GI50: 2.28 µM (inactive)
[13]
  GI50: 5.04 µM (inactive)
[14]
  GI50: 0.964 µM (active)
[15]
  GI50: 5.5 µM (inactive)
[16]
  GI50: 3.28 µM (inactive)
[17]
  GI50: 2.3 µM (inactive)
[18]
  GI50: 1.73 µM (inactive)
[19]
  GI50: 4.04 µM (inactive)
[20]
  GI50: 1.99 µM (inactive)

## CC[C@@]1(OC(=O)CCC(=O)O)C(=O)OCc2c1cc1n(c2=O)Cc2cc3ccccc3nc2-1
[1]
  GI50: 0.0263 µM (active)
[2]
  GI50: 0.216 µM (active)
[3]
  GI50: 0.484 µM (active)
[4]
  GI50: < 0.0203 µM (active)
[5]
  GI50: 0.104 µM (active)
[6]
  GI50: 0.472 µM
[7]
  GI50: 1.29 µM (inactive)
[8]
  GI50: 0.366 µM (active)
[9]
  GI50: 0.541 µM (active)
[10]
  GI50: 1.09 µM (active)
[11]
  GI50: < 0.01 µM (active)
[12]
  GI50: 0.91 µM (active)
[13]
  GI50: 0.363 µM (active)
[14]
  GI50: 0.257 µM (active)
[15]
  GI50: 0.0281 µM (active)
[16]
  GI50: 0.0333 µM (active)
[17]
  GI50: < 0.01 µM (active)
[18]
  GI50: 3.65 µM (inactive)
[19]
  GI50: 0.0303 µM (active)
[20]
  GI50: 0.0583 µM (active)

## CCOC(=O)NC(=O)c1cn(CCCOC(=O)CCCCCCCCC(=O)OCCCn2cc(C(=O)NC(=O)OCC)c(=O)n(C)c2=O)c(=O)n(C)c1=O
[1]
  GI50: > 76.6 µM (inactive)
[2]
  GI50: > 100 µM (inactive)
[3]
  GI50: > 100 µM (inactive)
[4]
  GI50: > 100 µM (inactive)
[5]
  GI50: > 100 µM (inactive)
[6]
  GI50: > 100 µM
[7]
  GI50: > 59 µM (inactive)
[8]
  GI50: > 100 µM (inactive)
[9]
  GI50: > 100 µM (inactive)
[10]
  GI50: > 100 µM (inactive)
[11]
  GI50: > 100 µM (inactive)
[12]
  GI50: > 100 µM (inactive)
[13]
  GI50: > 100 µM (inactive)
[14]
  GI50: > 82.8 µM (inactive)
[15]
  GI50: > 68.7 µM (inactive)
[16]
  GI50: > 100 µM (inactive)
[17]
  GI50: > 100 µM (inactive)
[18]
  GI50: > 86.5 µM (inactive)
[19]
  GI50: > 100 µM (inactive)
[20]
  GI50: > 100 µM (inactive)

## COc1cc(C2c3cc4c(cc3[C@@H](Nc3cccc(O)c3)C3COC(=O)[C@H]23)OCO4)cc(OC)c1O (stereo not given in full)
[1]
  GI50: 2.07 µM (inactive)
[2]
  GI50: 1.62 µM (inactive)
[3]
  GI50: 1.91 µM (inactive)
[4]
  GI50: 0.887 µM (active)
[5]
  GI50: 1.76 µM (inactive)
[6]
  GI50: 1.93 µM
[7]
  GI50: 1.32 µM (inactive)
[8]
  GI50: 3.33 µM (inactive)
[9]
  GI50: 3.98 µM (inactive)
[10]
  GI50: 2.7 µM (inactive)
[11]
  GI50: 0.0359 µM (active)
[12]
  GI50: 4.04 µM (inactive)
[13]
  GI50: 8.26 µM (inactive)
[14]
  GI50: 1.44 µM (inactive)
[15]
  GI50: 1.14 µM (inactive)
[16]
  GI50: 1.55 µM (inactive)
[17]
  GI50: 0.191 µM (active)
[18]
  GI50: 4.51 µM (inactive)
[19]
  GI50: 2.04 µM (inactive)
[20]
  GI50: 1.57 µM (inactive)
